The target of data set [1] is T1, σ1-receptor (Cavia porcellus, UniProt Q60492).
T1 construct: the σ1-receptor preparation was prepared from guinea pig brain; from tissue; host or cells: guinea pig brain membrane homogenate
Nature of the data set: Sigma-1 receptor binding (Version A), [3H]-(+)-pentazocine displacement. More on the design: species or system guinea pig.

A further data set concerns the target T2, σ2-receptor (Rattus norvegicus, UniProt Q5U3Y7).
T2 construct: the σ2-Receptorpreparation was prepared from rat liver; from tissue; host or cells: rat liver membrane homogenate
T2 sequence (Q5U3Y7 1-176): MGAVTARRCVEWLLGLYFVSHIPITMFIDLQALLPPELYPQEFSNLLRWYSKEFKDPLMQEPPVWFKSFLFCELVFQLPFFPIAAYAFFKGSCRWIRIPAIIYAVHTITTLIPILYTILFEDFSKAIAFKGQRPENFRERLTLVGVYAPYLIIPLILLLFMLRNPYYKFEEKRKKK
In words: Sigma 2 receptor binding (Version B), [3H]-Ditolylguanidin displacement. The following applies: version B, rat liver preparation, [3H]-Ditolylguanidin 3 nM, σ1 sites masked with (+)-Pentazocin 500 nM. On the procedure: In brief the σ2-Receptorpreparation was prepared from rat liver. The livers were homogenized in 5 to 6 times of volume sucrose solution (0.32M) and homogenized. The homogenate was centrifuged at 2900 rpm, 4° C., 10 min). the supernatant was centrifuged again (31000×g, 4° C., 20 min). The pellet was resuspended in TRIS-buffer, incubated for 30 min at room temperature while stirring and centrifuged f (31000×g, 4° C., 20 min). The pellet was resuspended in cold TRIS-buffer pH 8 and homogenized. Then the protein content was measured (approx. 2 mg/mL) and the homogenate frozen at −80° C. for later use.
The radioligand used was [^3H]-Ditolylguanidin in TRIS-buffer pH 8. The σ1-receptor binding sites were masked through (+)-Pentazocin-solution in TRIS-Puffer pH 8.
In a volume of 200 μL 50 μL compound solution of varying concentration, 50 μL (+)-Pentazocin-solution ([…]; resulting in 500 nM in the assay), 50 μL radioligand-solution (12 nM; resulting in 3 nM in the assay) and finally 50 μL of receptor preparation (approx. 2 mg/mL) were given into a well of a microplate equipped with a filter. The plate was closed and stirred for 2 h at room temperature and 500 rpm. Following that the solvents were removed by a harvester through the filter. After rinsing with H2O the filter was measured in a scintillation counter ([^3H]-protocol).

Data set [2] has as its target T1, σ1-receptor. Nature of the data set: Sigma 1 receptor binding (Version B), [3H]-(+)-Pentazocin displacement. More on the design: species or system guinea pig. The note with it: version B; guinea pig brain preparation; [3H]-(+)-Pentazocin 2 nM; read-out: Binding σ1 Ki. On the procedure:
In brief the σ1-receptor preparation was prepared from guinea pig brain. The brains were homogenized in 5 to 6 times of volume sucrose solution (0.32M) and homogenized. The homogenate was centrifuged at 2900 rpm, 4° C., 10 min). the supernatant was centrifuged again (23500×g, 4° C., 20 min). The pellet was resuspended in Tris-buffer, incubated for 30 min at room temperature and centrifuged f (23500×g, 4° C., 20 min). The pellet was resuspended in cold TRIS-buffer and homogenized. Then the protein content was measured (approx. 1.5 mg/mL) and the homogenate frozen at −80° C. for later use.
The radioligand used was [^3H]-(+)-Pentazocin in TRIS-buffer. In a volume of 200 μL 50 μL TRIS-buffer, 50 μL compound solution of varying concentration, 50 μL radioligand-solution (8 nM; resulting in 2 nM in the assay) and finally 50 μL of receptor preparation (approx. 1.5 mg/mL) were given into a well of a microplate equipped with a filter. The plate was closed and stirred for 2.5 h at 37° C. and 500 rpm. Following that the solvents were removed by a harvester through the filter. After rinsing with H2O the filter was measured in a scintillation counter ([^3H]-protocol).

Where two headings read alike, the source gives them in different places.

In patent US20100190813A1, “SPIRO [PIPERIDINE-4- 4' -THIENO [3,2-C] PYRAN] DERIVATIVES AND RELATED COMPOUNDS AS INHIBITORS OF THE SIGMA RECEPTOR FOR THE TREATMENT OF PSYCHOSIS” (priority 2007, published 2010) one finds Ki and melting point data, which are given here for two compounds.

T1 sequence (Q60492 whole entry): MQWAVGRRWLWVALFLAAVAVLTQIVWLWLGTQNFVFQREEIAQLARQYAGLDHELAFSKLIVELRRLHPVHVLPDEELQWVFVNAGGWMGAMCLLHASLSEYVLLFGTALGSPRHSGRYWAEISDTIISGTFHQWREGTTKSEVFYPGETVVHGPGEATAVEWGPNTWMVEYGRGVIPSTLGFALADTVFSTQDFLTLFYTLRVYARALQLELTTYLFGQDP

In turn, `COC1Cc2sccc2C2(CCN(Cc3ccccc3)CC2)O1` (stereo not shown) [Example 3, 1-Benzyl-6′-methoxy-6′,7′-dihydrospiro[piperidin-4,4′-thieno[3.2-c]pyran]] gave a melting point of 78 °C. On σ1-receptor [1], this compound had a Ki of 2.4 ± 0.3 nM. On σ2-receptor (read-out: Binding σ2 Ki), the Ki is 1260 nM. In addition, the inhibitory constant (Ki) on σ1-receptor [2] was determined as 0.32 ± 0.16 nM.

As to `c1cc2c(s1)CCOC21CCN(CC2CCCCC2)CC1` [Example 26, 1-(Cyclohexylmethyl)-6′,7′-dihydrospiro[piperidine-4,4′-thieno[3,2-c]pyrano]], the melting point was 77 °C. In addition, the Ki on σ2-receptor (Binding σ2 Ki [nM]) came to 3.27 ± 0.53 nM. Further, at σ1-receptor [2], the Ki was 0.66 ± 0.27 nM.

As a reminder, the Ki is the equilibrium dissociation constant of an inhibitor or competing ligand from its target. In general, melting point refers to the temperature, or range, at which the solid turns liquid.
